Laboratory results taken from ChEMBL document CHEMBL1132753, “Structure-activity relationship study of asiatic acid derivatives against beta amyloid (A beta)-induced neurotoxicity” (2000).

Test system: B103 cell line
Assay: In vitro percent protective effect against Amyloid Beta(A beta)-induced neurotoxicity in B103 cells
Type: functional, Rattus norvegicus
Set-up: concentration or dose not given beside the values

Structure (SMILES)	Protection [%]
C[C@@H]1CC[C@]2(C(=O)O)CC[C@]3(C)C(=CCC4[C@@]5(C)CC(=O)[C@H](O)[C@@](C)(CO)C5CC[C@]43C)C2[C@H]1C (stereo partly specified)	50
CC(=O)O[C@@H]1C[C@@]2(C)C(CC[C@]3(C)C2CC=C2C4[C@@H](C)[C@H](C)CC[C@]4(C(=O)O)CC[C@]23C)[C@](C)(CO)[C@H]1O (stereo partly specified)	22
CCCCCCCCOCOC(=O)[C@]12CC[C@@H](C)[C@H](C)C1C1=CCC3[C@@]4(C)CC(O)[C@H](O)[C@@](C)(CO)C4CC[C@@]3(C)[C@]1(C)CC2 (stereo partly specified)	22
C[C@@H]1CC[C@]2(C(=O)O)CC[C@]3(C)C(=CCC4[C@@]5(C)C[C@@H](O)[C@@H]6OC(C)(C)OC[C@@]6(C)C5CC[C@]43C)C2[C@H]1C (stereo partly specified)	66
COC(=O)[C@]12CC[C@@H](C)[C@H](C)C1C1=CCC3[C@@]4(C)C[C@@H](O)[C@H](O)[C@@](C)(CO)C4CC[C@@]3(C)[C@]1(C)CC2 (stereo partly specified)	58
C[C@@H]1CC[C@]2(C(=O)O)CC[C@]3(C)C(=CCC4[C@@]5(C)CCCC(C)(C)C5CC[C@]43C)C2[C@H]1C (stereo partly specified)	40
C[C@@H]1CC[C@]2(C(=O)OC3CCCCO3)CC[C@]3(C)C(=CCC4[C@@]5(C)C[C@@H](O)[C@H](O)[C@@](C)(CO)C5CC[C@]43C)C2[C@H]1C (stereo partly specified)	92
C[C@H]1[C@H](C)CC[C@]2(C(=O)O)CC[C@]3(C)C(=CC[C@@H]4[C@@]5(C)CC[C@H](O)[C@@](C)(CO)[C@@H]5CC[C@]43C)[C@H]12	87
C[C@H]1[C@H](C)CC[C@]2(C(=O)O)CC[C@]3(C)C(=CC[C@@H]4[C@@]5(C)C[C@@H](O)[C@H](O)[C@@](C)(CO)[C@@H]5CC[C@]43C)[C@H]12 [ASIATIC ACID]	97
C[C@H]1[C@H](C)CC[C@]2(C(=O)O[C@@H]3O[C@H](CO[C@@H]4O[C@H](CO)[C@@H](O[C@@H]5O[C@H](C)[C@H](O)[C@@H](O)[C@H]5O)[C@H](O)[C@H]4O)[C@@H](O)[C@H](O)[C@H]3O)CC[C@]3(C)C(=CC[C@@H]4[C@@]5(C)C[C@@H](O)[C@H](O)[C@@](C)(CO)[C@@H]5CC[C@]43C)[C@H]12 [ASIATICOSIDE]	24
C[C@H]1[C@H](C)CC[C@]2(C(=O)O)CC[C@]3(C)C(=CC[C@@H]4[C@@]5(C)C[C@@H](O)[C@H](O)[C@@](C)(CO)[C@@H]5[C@H](O)C[C@]43C)[C@H]12 [MADECASSIC ACID]	56
